In general, IC50 refers to the concentration needed to halve the response being measured.

One assay concerns NPC1 protein. The assay can be described thus: Effect on NPC1 protein levels, Western blot densitometry in I1061T fibroblasts. Conditions: 0.3, 1 and 3 μM, 24 h, 48 h, 72 h, versus vehicle (FIGS. 1B-1D). It counts as cell-based. On the procedure: (§1) Healthy and I1061T fibroblasts (Coriell Institute Camden USA, cod. GM05659 (Healthy) and GM18453 (11061T)) were grown in air containing 5% CO2 in Dulbecco's Modified Eagle Medium (DMEM) medium, containing 10% v/v fetal calf serum, 2 mM L-glutamine, 0.1 mg/mL gentamicin, and 100 U/mL penicillin. Cells were passaged every 3 days.
1.5 mg of each of the compounds were weighed, dissolved in the proper solvent to reach a 3 mM concentration, kept at 4° C., and used within 15 days. The dilutions for the treatment were carried out in order to administer a 1:1000 volume. Specifically, 2 μL in 2 mL medium was administered. Ctr was made with DMSO.
Cells were washed twice in phosphate buffer saline (PBS), harvested with 1% v/v trypsin, and pelleted by centrifugation. Pellets were re-suspended in PBS containing 0.1 M sucrose, 0.05 M KCl, 0.04 M KH2PO4, 30 mM EDTA, pH 7.4, and sonicated. The protein concentration was determined by the Lowry method.
Samples were solubilized in 0.25 mM Tris-HCl, (pH 6.8) containing 20% (w/v) SDS, protease inhibitor cocktail (Merck #PIC0002), then boiled for 2 minutes. […]
For orientation: A western blot detects proteins with antibodies after separation by electrophoresis.

The next assay deals with I1061T fibroblasts. The assay can be described thus: LysoTracker cytofluorimetric analysis of lysosomal size. It counts as cell-based. Conditions: after 48 hours, particularly at 0.3 μM (FIG. 3). The protocol: as §1
Healthy and I1061T fibroblasts were cultured as in Example 1. To evaluate the effect of Compound No. 10 on lysosomal size, cells were treated with either 300 μM beta-cyclodextrin (CD), 2.5 μM Rim, 0.3 μM Compound No. 10 (CB), 1 μM Compound No. 10, 3 μM Compound No. 10, or vehicle control (ctr) for 72 hours. Following treatment, cytofluorimetric assays using Lysotracker™ (Life Technology #L7528) fluorescence as a tool was used and performed according to the manufacturer's instructions. LysoTracker™ provides fluorescence detection for live-cell staining of acidic environments and can be used for labeling and tracing acidic organelles such as lysosomes. Stained and unstained cells were analyzed by Cytofluorimeter CytoFLEX (Beckman Coulter). Data provided are the ratio of geometric (geo) mean of LysoTracker™ levels in stained divided by unstained samples, collected at 24 hours (FIG. 3, left), 48 hours (FIG. 3, middle), and 72 hours (FIG. 3, right).

Assay [1] has as its target sigma 2/transmembrane protein 97 ("TMEM97") receptors (Homo sapiens, UniProt Q5BJF2). As to conditions: antagonist of the sigma receptor; known in the art; cited from earlier work.
Assay [2] relates to mouse model of Niemann-Pick Disease, Type C. Conditions: WO 2014/022841; cited from earlier work.

Chain of sigma 2/transmembrane protein 97 ("TMEM97") receptors (Q5BJF2 whole entry, species assumed): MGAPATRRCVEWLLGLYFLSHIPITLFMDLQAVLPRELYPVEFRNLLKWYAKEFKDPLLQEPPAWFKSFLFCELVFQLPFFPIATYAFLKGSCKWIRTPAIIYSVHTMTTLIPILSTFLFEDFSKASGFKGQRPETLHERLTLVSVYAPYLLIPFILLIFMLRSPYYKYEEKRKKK

On to `CC1(C)CCN(C2CCCC2)Cc2cc(-c3ccc(C(F)(F)F)cc3)ccc21` [Compound No. 10, 2-cyclopentyl-5,5-dimethyl-8-(4-(trifluoromethyl)phenyl)-2,3,4,5-tetrahydro-1H-benzo[c]azepine], for which the “effect on NPC1 protein expression” value in the assay with NPC1 protein is “did not have a statistically significant effect”. Also, the “fluorescence of the lysosomes (Lysotracker geo mean ratio), representing lysosomal size” value in the assay on I1061T fibroblasts is on record as “increase”.
Regarding `C[C@@H]1CN(CCCn2c3ccccc3c3ccccc32)C[C@H](C)N1` [Rimcazole, 9-[3-(3,5-cis-dimethylpiperazino)propyl]-carbazole], in assay [1], the IC50 was 386 nM.
Regarding `OC[C@H]1O[C@@H]2O[C@H]3[C@H](O)[C@@H](O)[C@@H](O[C@H]4[C@H](O)[C@@H](O)[C@@H](O[C@H]5[C@H](O)[C@@H](O)[C@@H](O[C@H]6[C@H](O)[C@@H](O)[C@@H](O[C@H]7[C@H](O)[C@@H](O)[C@@H](O[C@H]8[C@H](O)[C@@H](O)[C@@H](O[C@H]1[C@H](O)[C@H]2O)O[C@@H]8CO)O[C@@H]7CO)O[C@@H]6CO)O[C@@H]5CO)O[C@@H]4CO)O[C@@H]3CO` [beta-cyclodextrin], in assay [2], the cholesterol accumulation result is “reduced” and the neuronal cell loss result was “reduced”.

Values taken from patent US20260232653A1, “USE OF CONDENSED AZACYCLE COMPOUNDS FOR THE TREATMENT OF LYSOSOMAL STORAGE DISORDERS” (Minerva Neurosciences, Inc., priority 2023, published 2026).
